# “And” between values parts separate entries of the source, which are not always exact repeats. Equal values may be shown once. Inconclusive results and toxic doses are left out.
# System: L1210 leukemia ip in BDF1 mice, survival T/C
# Test: NCI In Vivo Anticancer Drug Screen. Data for tumor model L1210 Leukemia (intraperitoneal) in B6D2F1 (BDF1) mice
# Conditions: endpoint: mean survival time, higher = longer survival
# How it was run: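 Each compound was tested against a transplantable tumor grown in mice. The endpoint was survival, with treated animals benchmarked against vehicle controls as a simple ratio.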
# [1] = dose: 50.0 mg/kg/injection, schedule: Q01DX009 (ip), vehicle: Klucel (hydroxypropylcellulose) (HPC)
# [2] = dose: 100.0 mg/kg/injection, schedule: Q01DX009 (ip), vehicle: Klucel (hydroxypropylcellulose) (HPC)
# [3] = dose: 200.0 mg/kg/injection, schedule: Q01DX009 (ip), vehicle: Klucel (hydroxypropylcellulose) (HPC)
# [4] = dose: 50.0 mg/kg/injection, schedule: Q01DX001 (ip), vehicle: saline
# [5] = dose: 100.0 mg/kg/injection, schedule: Q04DX003 (ip), vehicle: Klucel (hydroxypropylcellulose) (HPC)
# [6] = dose: 200.0 mg/kg/injection, schedule: Q04DX003 (ip), vehicle: Klucel (hydroxypropylcellulose) (HPC)
# [7] = dose: 400.0 mg/kg/injection, schedule: Q01DX009 (ip), vehicle: Klucel (hydroxypropylcellulose) (HPC)
# [8] = dose: 400.0 mg/kg/injection, schedule: Q04DX003 (ip), vehicle: Klucel (hydroxypropylcellulose) (HPC)
# [9] = dose: 100.0 mg/kg/injection, schedule: Q04DX002 (ip), vehicle: Klucel (hydroxypropylcellulose) (HPC)
# [10] = dose: 200.0 mg/kg/injection, schedule: Q04DX002 (ip), vehicle: Klucel (hydroxypropylcellulose) (HPC)
# [11] = dose: 400.0 mg/kg/injection, schedule: Q04DX002 (ip), vehicle: Klucel (hydroxypropylcellulose) (HPC)
# [12] = dose: 100.0 mg/kg/injection, schedule: Q01DX001 (ip), vehicle: Klucel (hydroxypropylcellulose) (HPC)
# [13] = dose: 200.0 mg/kg/injection, schedule: Q01DX001 (ip), vehicle: Klucel (hydroxypropylcellulose) (HPC)
# [14] = dose: 100.0 mg/kg/injection, schedule: Q01DX009 (ip), vehicle: saline
# [15] = dose: 100.0 mg/kg/injection, schedule: Q04DX003 (ip), vehicle: saline
# [16] = dose: 200.0 mg/kg/injection, schedule: Q01DX009 (ip), vehicle: saline
# [17] = dose: 200.0 mg/kg/injection, schedule: Q04DX003 (ip), vehicle: saline
# [18] = dose: 400.0 mg/kg/injection, schedule: Q04DX003 (ip), vehicle: saline
# [19] = dose: 100.0 mg/kg/injection, schedule: Q01DX001 (ip), vehicle: carboxymethylcellulose (CMC)
# [20] = dose: 200.0 mg/kg/injection, schedule: Q01DX001 (ip), vehicle: carboxymethylcellulose (CMC)
# [21] = dose: 400.0 mg/kg/injection, schedule: Q01DX001 (ip), vehicle: carboxymethylcellulose (CMC)
# [22] = dose: 100.0 mg/kg/injection, schedule: Q01DX001 (ip), vehicle: saline
# [23] = dose: 200.0 mg/kg/injection, schedule: Q01DX001 (ip), vehicle: saline
# [24] = dose: 400.0 mg/kg/injection, schedule: Q01DX001 (ip), vehicle: saline
# [25] = dose: 50.0 mg/kg/injection, schedule: Q01DX009 (ip), vehicle: saline
smiles,measurement,setting,value
O=C(O)CC(Sc1ccccc1)c1ccccc1 (centres undefined),T/C,[1],98 % of control
same,T/C,[2],101 % of control
same,T/C,"dose: 177.0 mg/kg/injection, schedule: Q04DX002 (ip), vehicle: saline",94 % of control
same,T/C,[3],96 % of control
same,T/C,"dose: 266.0 mg/kg/injection, schedule: Q04DX002 (ip), vehicle: saline",94 % of control
same,T/C,"dose: 400.0 mg/kg/injection, schedule: Q04DX002 (ip), vehicle: saline",105 % of control
same,T/C,"dose: 600.0 mg/kg/injection, schedule: Q04DX002 (ip), vehicle: saline",103 % of control
O=C1CC2CCCCC2c2ccccc21 (centres undefined),T/C,"dose: 12.5 mg/kg/injection, schedule: Q01DX001 (ip), vehicle: saline",114 % of control
same,T/C,"dose: 25.0 mg/kg/injection, schedule: Q01DX001 (ip), vehicle: saline",102 % of control
same,T/C,[4],100 % of control
NN(C(=O)c1ccc([N+](=O)[O-])cc1)c1ccccc1,T/C,"dose: 75.0 mg/kg/injection, schedule: Q01DX001 (ip), vehicle: saline",95 % of control
same,T/C,"dose: 150.0 mg/kg/injection, schedule: Q01DX001 (ip), vehicle: saline",93 % of control
same,T/C,"dose: 300.0 mg/kg/injection, schedule: Q01DX001 (ip), vehicle: saline",90 % of control
CC(=O)[O][Pb]([c]1ccccc1)([c]1ccccc1)[c]1ccccc1,T/C,"dose: 0.5 mg/kg/injection, schedule: Q01DX015 (ip), vehicle: carboxymethylcellulose (CMC)",112 % of control
same,T/C,"dose: 1.0 mg/kg/injection, schedule: Q01DX015 (ip), vehicle: carboxymethylcellulose (CMC)",90 % of control
same,T/C,"dose: 2.0 mg/kg/injection, schedule: Q01DX015 (ip), vehicle: carboxymethylcellulose (CMC)",87 % of control
same,T/C,"dose: 4.0 mg/kg/injection, schedule: Q01DX015 (ip), vehicle: carboxymethylcellulose (CMC)",96 % of control
O=c1[nH][nH]c(=O)c2ccccc12,T/C,"dose: 50.0 mg/kg/injection, schedule: Q01DX001 (ip), vehicle: other",103 % of control
same,T/C,"dose: 100.0 mg/kg/injection, schedule: Q01DX001 (ip), vehicle: other",103 % of control
same,T/C,[2],111 % of control and 116 % of control
same,T/C,[5],108 % of control
same,T/C,"dose: 200.0 mg/kg/injection, schedule: Q01DX001 (ip), vehicle: other",100 % of control
same,T/C,[3],106 % of control and 105 % of control
same,T/C,[6],110 % of control
same,T/C,"dose: 400.0 mg/kg/injection, schedule: Q01DX001 (ip), vehicle: other",103 % of control
same,T/C,[7],100 % of control
same,T/C,[8],104 % of control
CC(=O)c1ccc(Oc2ccccc2)cc1,T/C,[9],104 % of control
same,T/C,[10],93 % of control
same,T/C,[11],110 % of control
O=C1/C(=C/c2ccco2)CC/C1=C\c1ccco1,T/C,[12],93 % of control
same,T/C,[5],94 % of control
same,T/C,[13],101 % of control
same,T/C,[6],96 % of control
same,T/C,"dose: 400.0 mg/kg/injection, schedule: Q01DX001 (ip), vehicle: Klucel (hydroxypropylcellulose) (HPC)",95 % of control
same,T/C,[8],96 % of control
O=[N+]([O-])c1cc(Br)cc(Br)c1S(=O)(=O)O,T/C,[14],105 % of control
same,T/C,[15],103 % of control
same,T/C,[16],97 % of control
same,T/C,[17],110 % of control
same,T/C,"dose: 400.0 mg/kg/injection, schedule: Q01DX009 (ip), vehicle: saline",108 % of control
same,T/C,[18],108 % of control
CC1=NN(c2ccccc2)C(=O)C1N=Nc1ccc(S(=O)(=O)Nc2nccc(C)n2)cc1 (centres undefined),T/C,[19],98 % of control
same,T/C,[20],98 % of control
same,T/C,[21],88 % of control
CCCCCCCCCCCCCCNC(=O)Nc1ccc(Cl)c(Cl)c1,T/C,[22],95 % of control
same,T/C,[23],92 % of control
same,T/C,[24],95 % of control
C/C=C\C(=O)OC.[W],T/C,[25],97 % of control
same,T/C,[14],105 % of control
same,T/C,[16],108 % of control
CC(=O)N(C(C)=O)c1ccc2c(c1)-n1cccc1C2=O,T/C,[5],100 % of control
same,T/C,[6],101 % of control
same,T/C,[8],98 % of control
Cc1cc2no[n+]([O-])c2cc1C,T/C,[1],108 % of control
same,T/C,[12],100 % of control
same,T/C,[2],106 % of control
same,T/C,[13],96 % of control
same,T/C,[3],114 % of control
COC(=O)c1cccc([N+](=O)[O-])c1,T/C,[22],96 % of control
same,T/C,[23],94 % of control
same,T/C,[24],100 % of control
O=C(OCc1ccccc1CN1CCCCC1)c1ccc([N+](=O)[O-])cc1Cl,T/C,[9],98 % of control
same,T/C,[10],98 % of control
same,T/C,[11],91 % of control
CC(=O)Nc1ccc(OC(=O)Oc2ccc(NC(C)=O)cc2)cc1,T/C,[4],101 % of control
same,T/C,[22],97 % of control
same,T/C,[23],95 % of control
same,T/C,[24],95 % of control
Cc1cn(C2CCCO2)c(=O)nc1N (centres undefined),T/C,[4],103 % of control
same,T/C,[22],97 % of control
same,T/C,[23],95 % of control
same,T/C,[24],101 % of control
CCOc1ccccc1NC(=O)Oc1cc(C)c(Cl)c(C)c1,T/C,[2],104 % of control
same,T/C,[3],98 % of control
same,T/C,[7],100 % of control
O=C(CCCCC(=O)Nc1ccc(C2=NCCN2)cc1)Nc1ccc(C2=NCCN2)cc1,T/C,"dose: 11.0 mg/kg/injection, schedule: Q01DX009 (ip), vehicle: saline",123 % of control
same,T/C,"dose: 75.0 mg/kg/injection, schedule: Q04DX003 (ip), vehicle: saline",123 % of control
same,T/C,"dose: 90.0 mg/kg/injection, schedule: Q01DX009 (ip), vehicle: saline",256 % of control
same,T/C,"dose: 150.0 mg/kg/injection, schedule: Q04DX003 (ip), vehicle: saline",123 % of control
same,T/C,"dose: 175.0 mg/kg/injection, schedule: Q01DX001 (ip), vehicle: saline",108 % of control
same,T/C,"dose: 175.0 mg/kg/injection, schedule: Q01DX009 (ip), vehicle: saline",212 % of control
same,T/C,"dose: 265.0 mg/kg/injection, schedule: Q01DX009 (ip), vehicle: saline",214 % of control
same,T/C,"dose: 266.0 mg/kg/injection, schedule: Q01DX001 (ip), vehicle: saline",156 % of control
same,T/C,"dose: 300.0 mg/kg/injection, schedule: Q04DX003 (ip), vehicle: saline",154 % of control
same,T/C,[24],186 % of control
same,T/C,"dose: 500.0 mg/kg/injection, schedule: Q01DX001 (ip), vehicle: carboxymethylcellulose (CMC)",179 % of control
same,T/C,"dose: 600.0 mg/kg/injection, schedule: Q01DX001 (ip), vehicle: saline",214 % of control
same,T/C,"dose: 600.0 mg/kg/injection, schedule: Q04DX003 (ip), vehicle: saline",197 % of control
same,T/C,"dose: 1000.0 mg/kg/injection, schedule: Q01DX001 (ip), vehicle: carboxymethylcellulose (CMC)",273 % of control
O=c1[nH]c2ccccc2c2ccc(Br)cc12,T/C,[19],104 % of control
same,T/C,[20],97 % of control
same,T/C,[21],90 % of control
CC(=O)C(C)=P(c1ccccc1)(c1ccccc1)c1ccccc1,T/C,"dose: 25.0 mg/kg/injection, schedule: Q01DX009 (ip), vehicle: saline",101 % of control
same,T/C,[25],102 % of control
same,T/C,[14],96 % of control
same,T/C,[15],98 % of control
same,T/C,[17],88 % of control
same,T/C,[18],88 % of control

# Source: PubChem BioAssay AID248 (DTP/NCI, 2004)
